Test results published in US8796256B2 (Janssen Pharmaceutica NV, priority 2010, dated 2014).

Target: T1, ERR1 (also known as ERR-α or ERR-1) (Homo sapiens, UniProt P11474)
T1 sequence (P11474 193-421 limits assumed): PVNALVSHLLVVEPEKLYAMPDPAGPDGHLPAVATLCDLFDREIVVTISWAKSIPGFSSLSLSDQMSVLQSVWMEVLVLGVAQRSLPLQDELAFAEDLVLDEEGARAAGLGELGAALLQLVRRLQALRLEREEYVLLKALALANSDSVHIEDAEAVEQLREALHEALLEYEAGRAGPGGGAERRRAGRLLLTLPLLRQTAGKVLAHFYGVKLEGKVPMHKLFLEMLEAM
Assay: TR-FRET assay (disruption of co-activator peptide binding to ERR1 LBD)
Assay type: biochemical
Conditions: 6 nM 6His-ERR1LBD, 6 nM GST-SRC-2 peptide; average of 3 independent experiments
Protocol: Time-Resolved Fluorescence Resonance Energy Transfer (TR-FRET) experiments were performed to examine the functional response of ERR1 (also known as ERR-α or ERR-1) ligands. The TR-FRET assay described herein relied on the conformation of ERR1 for binding to a co-activator peptide: when a test compound binds to ERR1 and alters its conformation, it can disrupt the binding of the co-activator peptide. The components of this homogeneous secondary assay included: the ^6His-tagged-ERR1LBD, a GST-labeled-hSRC2 co-activator polypeptide and a fluorescent donor/acceptor pair from CIS bio international htrf/bioassays (Bedford, Mass.) using both an α-GST Europium (Eu) Cryptate label and an α^6His-XL665 (allophycocyanin) fluorophore.
For TR-FRET measurements, the reaction was buffered in 25 mM Tris pH 8, 2.5 mM Hepes, 20 mM KCl, 1 mM DTT, and 0.05 mg/mL BSA (delipidated). The final concentrations of reagents were 6 nM of ERR1LBD, 6 nM GST-SRC-2 peptide, 30 nM Eu cryptate, and 7.5 nM a^6His-XL665. Reactions were allowed to reach equilibrium at 25° C. for 4-18 h before collecting data on the Analyst from LJL Biosystems (Molecular Devices Sunnyvale, Calif.). […] Dose response curves were fitted using a hyperbolic equation and the data reported is the average of 3 independent experiments.

| Compound | EC50 |
| --- | --- |
| NS(=O)(=O)CN1C(=O)S/C(=C\c2ccc3c(cnn3Cc3ccc(F)cc3C(F)(F)F)c2)C1=O [Compound 61, 1-[(5Z)-5-({1-[4-Fluoro-2-(trifluoromethyl)benzyl]-1H-indazol-5-yl}methylidene)-2,4-dioxo-1,3-thiazolidin-3-yl]methanesulfonamide] | 269 nM |
| COc1ccc(Cn2ncc3cc(/C=C4\SC(=O)N(C5CCN(S(N)(=O)=O)CC5)C4=O)ccc32)c(C(F)(F)F)c1 [Compound 32, 4-[(5Z)-5-({1-[4-Methoxy-2-(trifluoromethyl)benzyl]-1H-indazol-5-yl}methylidene)-2,4-dioxo-1,3-thiazolidin-3-yl]piperidine-1-sulfonamide] | 15 nM |
| O=C1S/C(=C\c2ccc3c(cnn3Cc3ccc(C(F)(F)F)cc3C(F)(F)F)c2)C(=O)N1C1CN2CCC1CC2 (stereo not shown) [Compound 63, (5Z)-3-(1-Azabicyclo[2.2.2]oct-3-yl)-5-({1-[2,4-bis(trifluoromethyl)benzyl]-1H-indazol-5-yl}methylidene)-1,3-thiazolidine-2,4-dione] | 20 nM |
| NC[C@H]1CC[C@H](CN2C(=O)S/C(=C\c3ccc4c(cnn4Cc4ccc(Cl)cc4C(F)(F)F)c3)C2=O)CC1 [Compound 106, (5Z)-3-{[trans-4-(Aminomethyl)cyclohexyl]methyl}-5-({1-[4-chloro-2-(trifluoromethyl)benzyl]-1H-indazol-5-yl}methylidene)-1,3-thiazolidine-2,4-dione] | 350 nM |
| CN1CC(N2C(=O)S/C(=C\c3ccc4c(cnn4Cc4ccc(Cl)cc4C(F)(F)F)c3)C2=O)C1 [Compound 133, (5Z)-5-({1-[4-Chloro-2-(trifluoromethyl)benzyl]-1H-indazol-5-yl}methylidine)-3-(1-methylazetidin-3-yl)-1,3-thiazolidine-2,4-dione] | 20 nM |
| CC1(C)OCC(CN2C(=O)S/C(=C\c3ccc4c(cnn4Cc4ccc(Cl)cc4C(F)(F)F)c3)C2=O)O1 (stereo not shown) [Compound 42, (5Z)-5-({1-[4-Chloro-2-(trifluoromethyl)benzyl]-1H-indazol-5-yl}methylidene)-3-[(2,2-dimethyl-1,3-dioxolan-4-yl)methyl]-1,3-thiazolidine-2,4-dione] | 46 nM |
| C[C@@H](N)CN1C(=O)S/C(=C\c2ccc3c(cnn3Cc3ccc(C(F)(F)F)cc3C(F)(F)F)c2)C1=O [Compound 80, (5Z)-3-[(2R)-2-Aminopropyl]-5-({1-[2,4-bis(trifluoromethyl)benzyl]-1H-indazol-5-yl}methylidene)-1,3-thiazolidine-2,4-dione] | 41 nM |
| O=C1S/C(=C\c2ccc3c(cnn3Cc3ccc(Cl)cc3C(F)(F)F)c2)C(=O)N1Cc1nccs1 [Compound 92, (5Z)-5-({1-[4-Chloro-2-(trifluoromethyl)benzyl]-1H-indazol-5-yl}methylidine)-3-(1,3-thiazol-2-ylmethyl)-1,3-thiazolidine-2,4-dione] | 24 nM |
| O=C1S/C(=C\c2ccc3c(cnn3Cc3ccc(Cl)cc3C(F)(F)F)c2)C(=O)N1C1CCCNCC1 (stereo not shown) [Compound 77, (5Z)-3-Azepan-4-yl-5-({1-[4-chloro-2-(trifluoromethyl)benzyl]-1H-indazol-5-yl}methylidene)-1,3-thiazolidine-2,4-dione] | 28 nM |
| CC[C@@H](CN1C(=O)S/C(=C\c2ccc3c(cnn3Cc3ccc(Cl)cc3C(F)(F)F)c2)C1=O)NS(C)(=O)=O [Compound 156, N-[(1S)-1-{[(5Z)-5-({1-[4-Chloro-2-(trifluoromethyl)benzyl]-1H-indazol-5-yl}methylidene)-2,4-dioxo-1,3-thiazolidin-3-yl]methyl}propyl] methanesulfonamide] | 27 nM |
| O=C1S/C(=C\c2ccc3c(cnn3Cc3ccc(Cl)cc3C(F)(F)F)c2)C(=O)N1CCN1CCCNCC1 [Compound 104, (5Z)-5-({1-[4-Chloro-2-(trifluoromethyl)benzyl]-1H-indazol-5-yl}methylidene)-3-[2-(1,4-diazepan-1-yl)ethyl]-1,3-thiazolidine-2,4-dione] | 112 nM |
| O=C1S/C(=C\c2ccc3c(cnn3Cc3ccc(Cl)cc3C(F)(F)F)c2)C(=O)N1CCc1cccnc1 [Compound 109, (5Z)-5-({1-[4-Chloro-2-(trifluoromethyl)benzyl]-1H-indazol-5-yl}methylidene)-3-(2-pyridin-3-ylethyl)-1,3-thiazolidine-2,4-dione] | 152 nM |

Now from value to compound:

| EC50 | Compound |
| --- | --- |
| 29 nM | O=C1S/C(=C\c2ccc3c(c2)nnn3Cc2ccc(Cl)cc2C(F)(F)F)C(=O)N1O [Compound 290, (5Z)-5-({1-[4-Chloro-2-(trifluoromethyl)benzyl]-1H-benzotriazol-5-yl}methylidene)-3-hydroxy-1,3-thiazolidine-2,4-dione] |
| 160 nM | CN1C[C@H](F)C[C@H]1CN1C(=O)S/C(=C\c2ccc3c(cnn3Cc3ccc(Cl)cc3C(F)(F)F)c2)C1=O [Compound 193, (5Z)-5-({1-[4-Chloro-2-(trifluoromethyl)benzyl]-1H-indazol-5-yl}methylidene)-3-{[(2S,4R)-4-fluoro-1-methylpyrrolidin-2-yl]methyl}-1,3-thiazolidine-2,4-dione] |
| 37 nM | NC(=O)CN1CC[C@@H](CN2C(=O)S/C(=C\c3ccc4c(cnn4Cc4ccc(Cl)cc4C(F)(F)F)c3)C2=O)C1 [Compound 299, 2-[(3R)-3-{[(5Z)-5-({1-[4-Chloro-2-(trifluoromethyl)benzyl]-1H-indazol-5-yl}methylidene)-2,4-dioxo-1,3-thiazolidin-3-yl]methyl}pyrrolidin-1-yl]acetamide] |
| 48 nM | CCN1CC[C@@H](N2C(=O)S/C(=C\c3ccc4c(c3)c(C)nn4Cc3ccc(Cl)cc3C(F)(F)F)C2=O)[C@H](F)C1 (relative stereo) [Compound 334, (5Z)-5-({1-[4-Chloro-2-(trifluoromethyl)benzyl]-3-methyl-1H-indazol-5-yl}methylidene)-3-[trans-1-ethyl-3-fluoropiperidin-4-yl]-1,3-thiazolidine-2,4-dione] |
| 29 nM | COC[C@@H](N)CN1C(=O)S/C(=C\c2ccc3c(cnn3Cc3ccc(Cl)cc3C(F)(F)F)c2)C1=O [Compound 168, (5Z)-3-[(2S)-2-Amino-3-methoxypropyl]-5-({1-[4-chloro-2-(trifluoromethyl)benzyl]-1H-indazol-5-yl}methylidene)-1,3-thiazolidine-2,4-dione] |
| 21 nM | CS(=O)(=O)NCCN1C(=O)S/C(=C\c2ccc3c(cnn3Cc3ccc(Cl)cc3C(F)(F)F)c2)C1=O [Compound 158, N-{2-[(5Z)-5-({1-[4-Chloro-2-(trifluoromethyl)benzyl]-1H-indazol-5-yl}methylidene)-2,4-dioxo-1,3-thiazolidin-3-yl]ethyl}methanesulfonamide] |
| 100 nM | O=C1S/C(=C\c2ccc3c(ccn3Cc3ccc(C(F)(F)F)cc3C(F)(F)F)c2)C(=O)N1CCO [Compound 242, (5Z)-5-[(1-{[2,4-Bis(trifluoromethyl)phenyl]methyl}-1H-indol-5-yl)methylidene]-3-(2-hydroxyethyl)-1,3-thiazolidine-2,4-dione] |
| 24 nM | O=C1S/C(=C\c2ccc3c(c2)nnn3Cc2ccc(Cl)cc2C(F)(F)F)C(=O)N1Cc1c[nH]nn1 [Compound 262, (5Z)-5-({1-[4-Chloro-2-(trifluoromethyl)benzyl]-1H-benzotriazol-5-yl}methylidene)-3-(1H-1,2,3-triazol-4-ylmethyl)-1,3-thiazolidine-2,4-dione] |
| 22 nM | O=C1S/C(=C\c2ccc3c(cnn3Cc3ccc(Cl)cc3C(F)(F)F)c2)C(=O)N1N1CCNCC1 [Compound 351, (5Z)-5-({1-[4-Chloro-2-(trifluoromethyl)benzyl]-1H-indazol-5-yl}methylidene)-3-piperazin-1-yl-1,3-thiazolidine-2,4-dione] |
| 277 nM | CS(=O)(=O)NC(=O)CN1C(=O)S/C(=C\c2ccc3c(cnn3Cc3ccc(F)cc3C(F)(F)F)c2)C1=O [Compound 185, 2-[(5Z)-5-({1-[4-Fluoro-2-(trifluoromethyl)benzyl]-1H-indazol-5-yl}methylidene)-2,4-dioxo-1,3-thiazolidin-3-yl]-N-(methylsulfonyl)acetamide] |
| 300 nM | CN(C)CCCN1C(=O)S/C(=C\c2ccc3c(ccn3Cc3ccc(C#N)cc3C(F)(F)F)c2)C1=O [Compound 247, 4-({5-[(Z)-{3-[3-(Dimethylamino)propyl]-2,4-dioxo-1,3-thiazolidin-5-ylidene}methyl]-1H-indol-1-yl}methyl)-3-(trifluoromethyl)benzonitrile] |
| 27 nM | O=C1CCNCC1N1C(=O)S/C(=C\c2ccc3c(cnn3Cc3ccc(Cl)cc3C(F)(F)F)c2)C1=O (stereo not shown) [Compound 343, (5Z)-5-({1-[4-Chloro-2-(trifluoromethyl)benzyl]-1H-indazol-5-yl}methylidene)-3-(4-oxopiperidin-3-yl)-1,3-thiazolidine-2,4-dione] |
| 22 nM | CCOC(=O)CN1C(=O)S/C(=C\c2ccc3c(c2)nnn3Cc2ccc(Cl)cc2C(F)(F)F)C1=O [Compound 259, Ethyl [(5Z)-5-({1-[4-chloro-2-(trifluoromethyl)benzyl]-1H-benzotriazol-5-yl}methylidene)-2,4-dioxo-1,3-thiazolidin-3-yl]acetate] |
